The test system of the series is Hepatotoxicity. Briefly: Literature-mined public compounds from Greene et al multi-species hepatotoxicity modelling dataset.

Numbered stars: 1 amine (or outer) side, 2 acyl side, 3 side chain; on linkers, the order of the positions; unused ones are H or OH. Bridge positions count the residues as written; N and C are the ends. Square brackets hold non-standard residues; d marks the D form. Peptide text beside a SMILES is read from it. * marks the point of attachment. Adda = CO[C@@H](Cc1ccccc1)[C@@H](C)/C=C(C)/C=C/[C@H](N[*:1])[C@H](C)C(=O)[*:2]; Ileψ(thiazoline)Cys = CC[C@H](C)[C@H](N)C1=N[C@H](C(=O)*)CS1; dAsp(3S-Me) = C[C@H](C(=O)[*:3])[C@@H](N[*:1])C(=O)[*:2]; d(γGlu) = O=C(O)[C@@H](CCC(=O)[*:2])N[*:1]; dOrn = NCCC[C@@H](N)C(=O)O; NMeDha = C=C(NC)C(=O)O

On to `Cc1onc(-c2c(Cl)cccc2Cl)c1C(=O)N[C@@H]1C(=O)N2[C@@H]1SC(C)(C)[C@@H]2C(=O)[O-].O.[Na+]` [DICLOXACILLIN SODIUM], for which the Hepatotoxicity entry is reported as “HH: Evidence of human hepatotoxicity”.
The same measure for `Cc1ccc(S(=O)(=O)NC(=O)NN2CCCCCC2)cc1` [TOLAZAMIDE]: “HH: Evidence of human hepatotoxicity”; for `N[C@@H](Cc1cc(I)c(Oc2ccc(O)c(I)c2)c(I)c1)C(=O)O` [LIOTHYRONINE]: “NE: No evidence of hepatotoxicity in any species”.
As for `CNCC[C@@H](Oc1ccccc1C)c1ccccc1` [ATOMOXETINE], the Hepatotoxicity result is “HH: Evidence of human hepatotoxicity”.
The result for `COC(=O)C1=C(C)NC(C)=C(C(=O)OCC(C)C)C1c1ccccc1[N+](=O)[O-]` (stereo unspecified) [NISOLDIPINE] reads “NE: No evidence of hepatotoxicity in any species”.
The result for `O=C(O)c1ccncc1` [ISONICOTINIC ACID] reads “NE: No evidence of hepatotoxicity in any species”.
The same measure for `NC(=O)NO` [HYDROXYUREA]: “HH: Evidence of human hepatotoxicity”; for `CC12CC3CC(C)(C1)CC(N)(C3)C2` [MEMANTINE]: “NE: No evidence of hepatotoxicity in any species”.
On to `O=c1[nH]c(=O)n([C@H]2C[C@H](O)[C@@H](CO)O2)cc1F` [FLOXURIDINE], for which the Hepatotoxicity entry is given as “HH: Evidence of human hepatotoxicity”.
As to `CC[N+](CC)(CC)CCOc1cccc(OCC[N+](CC)(CC)CC)c1OCC[N+](CC)(CC)CC.[I-].[I-].[I-]` [GALLAMINE TRIETHIODIDE], the Hepatotoxicity entry is “NE: No evidence of hepatotoxicity in any species”.
The result for `CC[C@H](C)[C@H](N)C1=N[C@H](C(=O)N[C@@H](CC(C)C)C(=O)N[C@H](CCC(=O)O)C(=O)N[C@H](C(=O)N[C@H]2CCCCNC(=O)[C@H](CC(N)=O)NC(=O)[C@@H](CC(=O)O)NC(=O)[C@H](Cc3cnc[nH]3)NC(=O)[C@@H](Cc3ccccc3)NC(=O)[C@H]([C@@H](C)CC)NC(=O)[C@@H](CCCN)NC2=O)[C@@H](C)CC)CS1` [BACITRACIN] ({Ileψ(thiazoline)Cys}-L[dE]IK[dOrn]I[dF]H[dD]N; lactam 4-C) reads “NE: No evidence of hepatotoxicity in any species”; that for `COc1ccccc1Oc1c(NS(=O)(=O)c2ccc(C(C)(C)C)cc2)nc(-c2ncccn2)nc1OCCO` [BOSENTAN], “HH: Evidence of human hepatotoxicity”.
The result for `NC(=O)c1ncn([C@@H]2O[C@H](CO)[C@@H](O)[C@H]2O)n1` [RIBAVIRIN] reads “WE: Weak evidence (<10 case reports) of human hepatotoxicity”.
Turning to `CC(C(=O)O)c1ccc2oc(-c3ccc(Cl)cc3)nc2c1` (stereo unspecified) [BENOXAPROFEN], the Hepatotoxicity entry is on record as “HH: Evidence of human hepatotoxicity”.
The result for `COCCOC(=O)C1=C(C)NC(C)=C(C(=O)OC(C)C)C1c1cccc([N+](=O)[O-])c1` (stereo unspecified) [NIMODIPINE] reads “HH: Evidence of human hepatotoxicity”; that for `O=c1[nH]cnc2c1ncn2[C@H]1CC[C@@H](CO)O1` [DIDANOSINE], “HH: Evidence of human hepatotoxicity”.
The same measure for `Nc1ccc(S(=O)(=O)c2ccc(N)cc2)cc1` [DAPSONE]: “HH: Evidence of human hepatotoxicity”; for `CC(C)(Oc1ccc(C2CC2(Cl)Cl)cc1)C(=O)O` (stereo unspecified) [CIPROFIBRATE]: “HH: Evidence of human hepatotoxicity”; for `C=CCO` [ALLYL ALCOHOL]: “HH: Evidence of human hepatotoxicity”.
The same measure for `CC(=O)CC(c1ccccc1)c1c(O)c2ccccc2oc1=O` (stereo unspecified) [WARFARIN]: “WE: Weak evidence (<10 case reports) of human hepatotoxicity”.
As for `CC(=O)OCC[N+](C)(C)C.[Cl-]` [ACETYLCHOLINE CHLORIDE], the Hepatotoxicity result was “NE: No evidence of hepatotoxicity in any species”.
The result for `CC(=O)OCC(=O)[C@@]1(O)CC[C@H]2[C@@H]3CCC4=CC(=O)CC[C@]4(C)[C@@]3(F)[C@@H](O)C[C@@]21C` [FLUDROCORTISONE ACETATE] reads “NE: No evidence of hepatotoxicity in any species”; that for `CCCCC(=O)N(Cc1ccc(-c2ccccc2-c2nnn[nH]2)cc1)[C@H](C(=O)O)C(C)C`, “WE: Weak evidence (<10 case reports) of human hepatotoxicity”.
`CC(=O)CC(c1ccc([N+](=O)[O-])cc1)c1c(O)c2ccccc2oc1=O` (stereo unspecified) [ACENOCOUMAROL]: the Hepatotoxicity entry is listed as “HH: Evidence of human hepatotoxicity”.
The same measure for `CCSCC[C@H](N)C(=O)O` (stereo in doubt; form 1) [ETHIONINE]: “HH: Evidence of human hepatotoxicity”; for `Nc1ncnc2c1ncn2[C@@H]1O[C@H](CO)[C@@H](O)[C@H]1O` [ADENOSINE]: “NE: No evidence of hepatotoxicity in any species”.
The same measure for `Cc1onc(-c2ccccc2Cl)c1C(=O)N[C@@H]1C(=O)N2[C@@H]1SC(C)(C)[C@@H]2C(=O)[O-].O.[Na+]` [CLOXACILLIN SODIUM]: “HH: Evidence of human hepatotoxicity”.
The same measure for CARBOPLATIN: “HH: Evidence of human hepatotoxicity”.
In the case of `N[C@H](C(=O)O)[C@@H]1CC(Cl)=NO1` [ACIVICIN], the Hepatotoxicity result is “NE: No evidence of hepatotoxicity in any species”.
The result for `CO[C@@]1(NC(=O)Cc2cccs2)C(=O)N2C(C(=O)O)=C(COC(N)=O)CS[C@@H]21` [CEFOXITIN] reads “HH: Evidence of human hepatotoxicity”; that for `Nc1ccc(Cc2ccc(N)cc2)cc1`, “AH: Evidence for animal hepatotoxicity but not tested in humans”; that for `N[C@H]1C(O)O[C@H](CO)[C@@H](O)[C@@H]1O` (stereo partly specified) [GLUCOSAMINE], “AH: Evidence for animal hepatotoxicity but not tested in humans”.
With `C[C@](N)(Cc1ccc(O)c(O)c1)C(=O)O` [METHYLDOPA], the Hepatotoxicity entry is given as “HH: Evidence of human hepatotoxicity”.
Consider `COC(=O)C1=C(C)NC(C)=C(C(=O)OC)C1c1ccccc1[N+](=O)[O-]` [NIFEDIPINE], for which the Hepatotoxicity result is given as “HH: Evidence of human hepatotoxicity”.
For `CCC(=O)O[C@H]1[C@H](O[C@@H]2[C@@H](C)[C@H](O[C@H]3C[C@@](C)(OC)[C@@H](O)[C@H](C)O3)[C@@H](C)C(=O)O[C@H](CC)[C@@](C)(O)[C@H](O)[C@@H](C)C(=O)[C@H](C)C[C@@]2(C)O)O[C@H](C)C[C@@H]1N(C)C.CCCCCCCCCCCCOS(=O)(=O)O` [ERYTHROMYCIN ESTOLATE], the Hepatotoxicity result is recorded as “HH: Evidence of human hepatotoxicity”.
`CN(C)C=O` [DIMETHYLFORMAMIDE]: the Hepatotoxicity result was “AH: Evidence for animal hepatotoxicity but not tested in humans”.
The result for `COc1cccc(OC)c1C(=O)N[C@@H]1C(=O)N2[C@@H]1SC(C)(C)[C@@H]2C(=O)[O-].[Na+]` reads “HH: Evidence of human hepatotoxicity”; that for TRANSPLATIN, “AH: Evidence for animal hepatotoxicity but not tested in humans”.
The result for `COc1cc2c(c(OC)c1OC)-c1ccc(OC)c(=O)cc1[C@@H](NC(C)=O)CC2` [COLCHICINE] reads “WE: Weak evidence (<10 case reports) of human hepatotoxicity”; that for `C#C[C@]1(O)CC[C@H]2[C@@H]3CCc4cc(OC)ccc4[C@H]3CC[C@@]21C` [MESTRANOL], “HH: Evidence of human hepatotoxicity”.
The same measure for `O=C(COc1ccc(Cl)cc1)N1CCN(Cc2ccc3c(c2)OCO3)CC1` [FIPEXIDE]: “HH: Evidence of human hepatotoxicity”; for `O=C1NCN(c2ccccc2)C12CCN(CCCC(c1ccc(F)cc1)c1ccc(F)cc1)CC2`: “HH: Evidence of human hepatotoxicity”; for `CCCN(CCC)C(=O)Cc1c(-c2ccc(Cl)cc2)nc2ccc(Cl)cn12` [ALPIDEM]: “HH: Evidence of human hepatotoxicity”.
On to `COc1cccc2c1C(=O)c1c(O)c3c(c(O)c1C2=O)C[C@@](O)(C(=O)CO)C[C@@H]3O[C@H]1C[C@H](N)[C@H](O)[C@H](C)O1` [DOXORUBICIN], for which the Hepatotoxicity entry is listed as “NE: No evidence of hepatotoxicity in any species”.
The same measure for `Cl.O=C(O)CCCCCCNC1c2ccccc2CCc2ccccc21` [AMINEPTINE HYDROCHLORIDE]: “HH: Evidence of human hepatotoxicity”; for `Clc1ccc(COC(Cn2ccnc2)c2ccc(Cl)cc2Cl)c(Cl)c1` (stereo unspecified) [MICONAZOLE]: “NE: No evidence of hepatotoxicity in any species”.
For `C#C[C@]1(OC(C)=O)CC[C@H]2[C@@H]3CCC4=C[C@@H](OC(C)=O)CC[C@@H]4[C@H]3CC[C@@]21C` [ETHYNODIOL DIACETATE], the Hepatotoxicity result is reported as “HH: Evidence of human hepatotoxicity”.
Regarding `Cc1ccccc1C(OCCN(C)C)c1ccccc1.O=C(O)CC(O)(CC(=O)O)C(=O)O` (stereo unspecified) [ORPHENADRINE CITRATE], the Hepatotoxicity entry is on record as “NE: No evidence of hepatotoxicity in any species”.
For `CC(C)(O)c1ccccc1CC[C@@H](SCC1(CC(=O)O)CC1)c1cccc(/C=C/c2ccc3ccc(Cl)cc3n2)c1` [MONTELUKAST], the Hepatotoxicity entry was “WE: Weak evidence (<10 case reports) of human hepatotoxicity”.
Consider `NS(=O)(=O)c1cc2c(cc1Cl)NCNS2(=O)=O` [HYDROCHLOROTHIAZIDE], for which the Hepatotoxicity entry is given as “HH: Evidence of human hepatotoxicity”.
As for `C=C1C(=O)N[C@H](C)C(=O)N[C@@H](CC(C)C)C(=O)N[C@@H](C(=O)O)[C@H](C)C(=O)N[C@@H](CCCNC(=N)N)C(=O)N[C@@H](/C=C/C(C)=C/[C@H](C)[C@H](Cc2ccccc2)OC)[C@H](C)C(=O)N[C@@H](C(=O)O)CCC(=O)N1C` [MICROCYSTIN-LR] (R[Adda][d(γGlu)][NMeDha][dA]L[dAsp(3S-Me)]-OH; lactam N-7), the Hepatotoxicity result is reported as “AH: Evidence for animal hepatotoxicity but not tested in humans”.
Regarding `C#C[C@]1(O)CC[C@H]2[C@@H]3CCC4=Cc5oncc5C[C@]4(C)[C@H]3CC[C@@]21C` [DANAZOL], the Hepatotoxicity result is recorded as “HH: Evidence of human hepatotoxicity”.
The same measure for `COC(=O)Nc1nc2ccccc2[nH]1` [CARBENDAZIM]: “AH: Evidence for animal hepatotoxicity but not tested in humans”.
`Nc1ccc(S(N)(=O)=O)cc1` [SULFANILAMIDE]: the Hepatotoxicity entry is on record as “HH: Evidence of human hepatotoxicity”.
The same measure for `CN1CCN2c3ccccc3Cc3ccccc3C2C1` (stereo unspecified) [MIANSERIN]: “HH: Evidence of human hepatotoxicity”; for `N[C@@H](Cc1ccc(O)c(O)c1)C(=O)O` [LEVODOPA]: “NE: No evidence of hepatotoxicity in any species”.
